# From ChEMBL document CHEMBL1201862, “PubChem BioAssay data set” (2004)
# The source made the active and inactive calls.
# Legend:
# [1] = P. falciparum 3D7-ScDHODH growth inhibitors, dose response, SYBR Green, dry powder samples (AID 1159570); format: functional, cell-based;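 also: parasite growth measured after 72 hours of compound exposure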
# [2] = HepG2 cell cytotoxicity, dose response, cytotoxicity control, plate reader, dry powder samples (AID 1159569); format: functional, cell-based;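 also: inhibitor potency with signal falling toward the positive control level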
# [3] = P. falciparum Dd2 growth inhibitors, dose response, SYBR Green, cherry-picked samples (AID 1159567); format: functional, cell-based
# [4] = P. falciparum Dd2 growth inhibitors, dose response, SYBR Green, dry powder samples (AID 1159566); format: functional, cell-based;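 also: potency for growth inhibition with lower SYBR green DNA signal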
# [5] = HepG2 cell cytotoxicity, dose response, cytotoxicity control, cherry-picked samples (AID 1159577); format: functional, cell-based
# [6] = P. falciparum ATP4 D1247Y mutant growth inhibitors, dose response, NITD609-resistant line, SYBR Green, dry powder (AID 1159571); format: functional, cell-based;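 also: parasites synchronized at ring stage by sorbitol before testing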
# [7] = biological target: E3 ubiquitin-protein ligase Mdm2 (Homo sapiens, UniProt Q00987); assay: enhancers of MDM2-luciferase reporter signal, concentration-effect titration, project on inhibitors of MDM2 ubiquitin ligase, cellular assay, luminescent readout, 384-well plate format (AID 1394); format: functional;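 also: MDM2 E3 inhibitors raise luminescence so EC50 is for signal enhancement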
# Sequence of E3 ubiquitin-protein ligase Mdm2 (Q00987 whole entry): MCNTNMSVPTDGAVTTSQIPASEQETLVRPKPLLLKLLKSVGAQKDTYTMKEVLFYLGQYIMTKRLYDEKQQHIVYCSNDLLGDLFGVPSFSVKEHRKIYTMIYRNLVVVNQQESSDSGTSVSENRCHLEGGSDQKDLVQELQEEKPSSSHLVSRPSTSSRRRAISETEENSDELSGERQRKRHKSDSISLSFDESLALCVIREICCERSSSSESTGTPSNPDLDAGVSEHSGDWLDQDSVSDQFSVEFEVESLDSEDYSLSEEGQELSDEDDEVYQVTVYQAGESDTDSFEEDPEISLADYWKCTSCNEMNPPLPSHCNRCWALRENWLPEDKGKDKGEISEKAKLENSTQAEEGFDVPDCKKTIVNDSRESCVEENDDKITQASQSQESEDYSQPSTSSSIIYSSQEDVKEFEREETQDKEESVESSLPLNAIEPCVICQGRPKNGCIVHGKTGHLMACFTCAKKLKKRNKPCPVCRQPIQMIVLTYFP
# [8] = tested on: Streptococcus sp. 'group A'; assay: growth inhibition of control SK(-) GAS strain, dose response, counter-screen for streptokinase expression inhibitor project, luminescence, kanamycin, BacTiterGlo, confirmation (AID 1900); format: functional, organism-based
# Vero = assay: host cell cytotoxicity of antiviral hits, dose response, cytotoxicity control for West Nile virus antiviral project, secondary assay (AID 1650); format: functional; conditions: Chlorocebus sabaeus
# Streptokinase A = biological target: T1, Streptokinase A (Streptococcus pyogenes serotype M1, UniProt P10520); assay: S. pyogenes streptokinase expression inhibitors, potency, dose response, plasminogen activation absorbance, OD405 (AID 1914); format: functional, Streptococcus pyogenes M1 GAS;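 also: secreted streptokinase activity via plasminogen activation per viability signal from cell pellet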
# T1 sequence (P10520 whole entry): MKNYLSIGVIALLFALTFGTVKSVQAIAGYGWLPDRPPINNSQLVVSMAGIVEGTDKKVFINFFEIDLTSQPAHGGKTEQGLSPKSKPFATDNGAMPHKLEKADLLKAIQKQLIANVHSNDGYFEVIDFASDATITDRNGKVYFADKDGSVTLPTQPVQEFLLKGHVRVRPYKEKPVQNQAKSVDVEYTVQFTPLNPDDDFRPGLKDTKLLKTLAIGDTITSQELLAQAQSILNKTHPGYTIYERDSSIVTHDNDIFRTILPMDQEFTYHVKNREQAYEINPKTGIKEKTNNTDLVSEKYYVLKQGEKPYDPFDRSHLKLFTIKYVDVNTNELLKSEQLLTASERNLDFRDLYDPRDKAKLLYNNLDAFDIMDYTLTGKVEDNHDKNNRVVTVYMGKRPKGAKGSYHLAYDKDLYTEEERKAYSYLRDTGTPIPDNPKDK
# Streptococcus = assay: Group A Streptococcus viability loss, dose response, counter-screen for streptokinase expression inhibitor project, luminescence, BacTiterGlo (AID 1915); format: functional, organism-based;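 also: potency for reduction of bacterial viability or growth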
# [9] = biological target: T2, Methionyl-tRNA synthetase, putative (Trypanosoma brucei brucei, UniProt Q38C91); format: functional, Trypanosoma brucei brucei strain 927/4 GUTat10.1
# T2 sequence (Q38C91 whole entry): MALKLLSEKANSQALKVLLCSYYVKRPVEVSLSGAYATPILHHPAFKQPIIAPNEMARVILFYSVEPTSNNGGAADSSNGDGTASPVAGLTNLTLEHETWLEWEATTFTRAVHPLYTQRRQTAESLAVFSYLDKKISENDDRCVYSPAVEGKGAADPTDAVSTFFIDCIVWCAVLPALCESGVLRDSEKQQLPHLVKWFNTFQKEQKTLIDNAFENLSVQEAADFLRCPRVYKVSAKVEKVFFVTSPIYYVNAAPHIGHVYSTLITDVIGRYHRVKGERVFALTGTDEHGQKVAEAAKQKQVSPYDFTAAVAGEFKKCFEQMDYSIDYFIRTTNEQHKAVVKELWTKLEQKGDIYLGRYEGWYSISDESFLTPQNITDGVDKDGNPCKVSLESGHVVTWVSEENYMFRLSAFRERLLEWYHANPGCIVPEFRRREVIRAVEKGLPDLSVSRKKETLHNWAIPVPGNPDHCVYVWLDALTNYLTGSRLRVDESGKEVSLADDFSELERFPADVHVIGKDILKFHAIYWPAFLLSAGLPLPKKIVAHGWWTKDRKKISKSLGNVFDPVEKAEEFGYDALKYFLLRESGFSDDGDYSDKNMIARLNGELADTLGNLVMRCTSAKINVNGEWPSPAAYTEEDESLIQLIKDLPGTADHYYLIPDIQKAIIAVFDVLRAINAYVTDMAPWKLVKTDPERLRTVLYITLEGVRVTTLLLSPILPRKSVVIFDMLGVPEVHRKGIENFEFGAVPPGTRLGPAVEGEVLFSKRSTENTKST
# [10] = Counterscreen for inhibitors of Trypanosoma brucei methionyl tRNA synthetase (MetRS): Luminescence-based cell-based high throughput dose response assay to identify compounds that are cytotoxic to Jurkat human T lymphocyte cells.; format: functional
# [11] = biological target: T2, Methionyl-tRNA synthetase, putative; format: functional, Trypanosoma brucei brucei strain 927/4 GUTat10.1; remark: listed apart in the source
# [12] = Late stage counterscreen for inhibitors of Trypanosoma brucei methionyl tRNA synthetase (MetRS): Luminescence-based cell-based high throughput dose response assay to identify compounds that are cytotoxic to Jurkat human T lymphocyte cells.; format: functional
# [13] = inhibitors of intracellular T. cruzi replication, confirmation, NIH3T3 host cells, beta-gal luminescence (AID 2044); format: functional, cell-based;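 also: intracellular parasites grown in NIH/3T3 mouse fibroblasts as host cells; luminescent beta-galactosidase reporter signal from transgenic T. cruzi replicating inside host cells; inhibitors lower the luminescence signal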
# [14] = cytotoxicity toward NIH3T3 fibroblasts, dose response, counter-screen, cell-based, ATP luminescence, mouse fibroblasts (AID 2010); format: functional;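 also: cells exposed to compound for about 90 hours before reading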
# [15] = biological target: Bifunctional protein GlmU (Mycobacterium tuberculosis, UniProt P9WMN3); assay: Inhibitors of Mycobacterial Glucosamine-1-phosphate acetyl transferase (GlmU). Secondary screen.; set-up: species or system Mycobacterium tuberculosis H37Rv
# Sequence of Bifunctional protein GlmU (P9WMN3 whole entry): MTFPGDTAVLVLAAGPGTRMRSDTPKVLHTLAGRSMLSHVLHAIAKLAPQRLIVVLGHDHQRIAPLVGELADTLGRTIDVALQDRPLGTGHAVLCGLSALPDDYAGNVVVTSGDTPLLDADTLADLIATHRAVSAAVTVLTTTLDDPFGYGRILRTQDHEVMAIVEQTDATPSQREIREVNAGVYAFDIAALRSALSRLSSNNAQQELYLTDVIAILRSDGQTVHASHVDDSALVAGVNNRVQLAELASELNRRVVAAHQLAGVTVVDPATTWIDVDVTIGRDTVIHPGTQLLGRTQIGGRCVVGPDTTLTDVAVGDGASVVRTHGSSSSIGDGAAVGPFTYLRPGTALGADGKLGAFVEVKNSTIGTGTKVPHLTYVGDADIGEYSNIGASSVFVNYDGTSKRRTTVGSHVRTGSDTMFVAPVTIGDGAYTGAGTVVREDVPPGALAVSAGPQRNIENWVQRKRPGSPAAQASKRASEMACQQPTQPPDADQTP
# [16] = biological target: Glyceraldehyde-3-phosphate dehydrogenase (Homo sapiens, UniProt P04406)
# Sequence of Glyceraldehyde-3-phosphate dehydrogenase (P04406 whole entry): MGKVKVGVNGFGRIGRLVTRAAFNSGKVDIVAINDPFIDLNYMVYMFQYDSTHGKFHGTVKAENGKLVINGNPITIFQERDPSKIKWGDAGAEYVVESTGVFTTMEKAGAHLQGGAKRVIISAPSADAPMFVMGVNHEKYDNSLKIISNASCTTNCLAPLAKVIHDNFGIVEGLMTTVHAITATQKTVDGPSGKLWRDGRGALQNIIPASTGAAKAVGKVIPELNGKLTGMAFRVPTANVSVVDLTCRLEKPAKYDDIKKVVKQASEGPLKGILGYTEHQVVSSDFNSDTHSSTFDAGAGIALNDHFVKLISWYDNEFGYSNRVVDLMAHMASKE
# Bcl-2-related protein A1 [17] = biological target: T3, Bcl-2-related protein A1 (Mus musculus, UniProt Q07440); assay: Bfl-1 inhibitors blocking BH3 peptide binding, confirmation, biochemical, TR-FRET, mouse Bfl-1 (AID 621);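 also: TR-FRET binding of GST-Bfl-1 to FITC-labelled Bid peptide via terbium antibody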
# T3 sequence (Q07440 whole entry): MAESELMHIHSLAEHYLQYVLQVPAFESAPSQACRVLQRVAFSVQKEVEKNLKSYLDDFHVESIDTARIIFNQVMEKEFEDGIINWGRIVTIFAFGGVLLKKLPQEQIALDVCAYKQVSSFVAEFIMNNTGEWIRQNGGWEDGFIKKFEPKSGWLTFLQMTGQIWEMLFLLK
# Bcl-2-related protein A1 [18] = biological target: T3, Bcl-2-related protein A1; assay: Bfl-1 binding inhibitors, SAR follow-up, biochemical, fluorescence polarization (AID 1070)
compound,measurement,setting,value
COc1ccc2c3c([nH]c2c1)[C@H](CO)N(C(=O)CN(C)C)CC31CCN(CC2CCCCC2)CC1,AC50,[1],0.0468 µM (active)
same,AC50,[2],19.1 µM (active)
same,AC50,[3],0.644 µM (active)
same,AC50,[4],0.433 µM (active)
same,AC50,[5],> 39 µM (inactive)
same,AC50,[6],1.12 µM (active)
OC(c1nnc(-c2ccccc2)o1)c1cccs1 (configuration not stated),EC50,[7],441 µM (not active)
Cc1cc(C)c(C(=O)Nc2ccc(Br)c(C(F)(F)F)c2)c(C)c1,EC50,[8],2.41 µM (active)
same,CC50,Vero,47.4 µM (active)
same,EC50,Streptokinase A,3.29 µM (active)
same,EC50,Streptococcus,3.73 µM (active)
CCCCCCCCCC1NC(C(=O)O)Cc2c1[nH]c1ccccc21 (configuration not stated),IC50,[9],3.75 µM (active)
same,IC50,[10],83.3 µM (inactive)
same,IC50,[11],1.96 µM (active)
same,IC50,[12],> 83.3 µM (inactive)
COc1cccc(CNC(=O)CCC2CCCN(C/C=C/c3ccccc3OC)C2)c1 (configuration not stated),EC50,[13],< 0.1 µM (active)
same,EC50,[14],> 60 µM (not active)
same,EC50,cells,0.05 µM (active)
O=C1C(Cl)=C(Nc2ccccc2O)C(=O)N1CCc1ccccc1,IC50,[15],85.3 µM (active)
O=C1C(Cl)=C(N2CCOCC2)C(=O)N1c1ccc(Cl)cc1Cl,IC50,[16],> 10 µM (inconclusive)
same,IC50,Bcl-2-related protein A1 [17],> 100 µM (not active)
same,IC50,Bcl-2-related protein A1 [18],> 100 µM (not active)
